Source: patent US20250304559A1, “Ether-Linked Antiviral Compounds” (Pfizer Inc., priority 2021, published 2025)

Experiments:
SARS-CoV-2 3CL protease = molecular target: T1, SARS-CoV-2 3CL protease (Severe acute respiratory syndrome coronavirus 2, UniProt P0DTD1); experiment: SARS-CoV-2 Coronavirus 3C Protease FRET Assay; format: biochemical; details: Examples 14-78 and 114 (second head of Table 2); Morrison equation fit, 15 nM enzyme, 25 μM peptide substrate; read-out: Geometric Mean Ki (nM) IC50
T1 construct: measures the activity of full-length SARS-CoV-2 3CL protease

[1] = tested on: SARS-CoV-2 (USA_WA1/2020); experiment: Antiviral Activity from SARS-CoV-2 Infection (cytopathic effect, Cell Titer-Glo); format: cell-based; details: Severe acute respiratory syndrome coronavirus 2, Vero C1008, 72 h, VeroE6 cells enriched for hACE2, MOI 0.002, 3-day incubation; tested alone or with P-gp inhibitor CP-100356 2 μM (table does not say which); read-out: Geometric Mean EC50

| SMILES | Ki (SARS-CoV-2 3CL protease) | EC50 [1] |
| --- | --- | --- |
| CC(C)(C)[C@H](NS(=O)(=O)C(F)(F)F)C(=O)N1C[C@H]2[C@@H]([C@H]1C(=O)N[C@H](C[C@@H]1CCNC1=O)C(=O)COc1ccc(F)cc1F)C2(C)C [Example 68, (1R,2S,5S)-N-{(2R)-4-(2,4-difluorophenoxy)-3-oxo-1-[(3S)-2-oxopyrrolidin-3-yl]butan-2-yl}-6,6-dimethyl-3-[3-methyl-N-(trifluoromethanesulfonyl)-L-valyl]-3-azabicyclo[3.1.0]hexane-2-carboxamide] | 129 nM | 0.097 µM |
| CC[C@@H]([C@H](NS(=O)(=O)C(F)(F)F)C(=O)N1C[C@H]2[C@@H]([C@H]1C(=O)N[C@@H](C[C@@H]1CCNC1=O)C(=O)COc1ccc(F)cc1F)C2(C)C)C(F)(F)F [Example 70, (1R,2S,5S)-N-{(2S)-4-(2,4-difluorophenoxy)-3-oxo-1-[(3S)-2-oxopyrrolidin-3-yl]butan-2-yl}-6,6-dimethyl-3-[3′,3′,3′-trifluoro-N-(trifluoromethanesulfonyl)-L-isoleucyl]-3-azabicyclo[3.1.0]hexane-2-carboxamide] | 203 nM | 5.44 µM |
| Cc1ccc2nc(OCC(=O)[C@H](C[C@@H]3CCNC3=O)NC(=O)[C@@H]3[C@@H]4[C@H](CN3C(=O)[C@@H](NC(=O)C(F)(F)F)C(C)C)C4(C)C)oc2c1 [Example 72, (1R,2S,5S)-6,6-dimethyl-N-{(2S)-4-[(6-methyl-1,3-benzoxazol-2-yl)oxy]-3-oxo-1-[(3S)-2-oxopyrrolidin-3-yl]butan-2-yl}-3-[N-(trifluoroacetyl)-L-valyl]-3-azabicyclo[3.1.0]hexane-2-carboxamide] | 505 nM | 19 µM |
| CC(C)[C@H](NC(=O)C(F)(F)F)C(=O)N1C[C@H]2[C@@H]([C@H]1C(=O)N[C@@H](C[C@@H]1CCNC1=O)C(=O)COc1nnc(C(F)(F)F)n1C)C2(C)C [Example 74, (1R,2S,5S)-6,6-dimethyl-N-{(2S)-4-{[4-methyl-5-(trifluoromethyl)-4H-1,2,4-triazol-3-yl]oxy}-3-oxo-1-[(3S)-2-oxopyrrolidin-3-yl]butan-2-yl}-3-[N-(trifluoroacetyl)-L-valyl]-3-azabicyclo[3.1.0]hexane-2-carboxamide] | 919 nM | 25.7 µM |
| CC(C)[C@H](NC(=O)C(F)(F)F)C(=O)N1C[C@H]2[C@@H]([C@H]1C(=O)N[C@@H](C[C@@H]1CCNC1=O)C(=O)COc1nnc3c(F)cccn13)C2(C)C [Example 75, (1R,2S,5S)-N-{(2S)-4-[(8-fluoro[1,2,4]triazolo[4,3-a]pyridin-3-yl)oxy]-3-oxo-1-[(3S)-2-oxopyrrolidin-3-yl]butan-2-yl}-6,6-dimethyl-3-[N-(trifluoroacetyl)-L-valyl]-3-azabicyclo[3.1.0]hexane-2-carboxamide] | 2900 nM | > 76.8 µM |
| Cc1noc(OCC(=O)[C@H](C[C@@H]2CCNC2=O)NC(=O)[C@@H]2[C@@H]3[C@H](CN2C(=O)[C@@H](NC(=O)C(F)(F)F)C(C)C)C3(C)C)n1 [Example 76, (1R,2S,5S)-6,6-dimethyl-N-{(2S)-4-[(3-methyl-1,2,4-oxadiazol-5-yl)oxy]-3-oxo-1-[(3S)-2-oxopyrrolidin-3-yl]butan-2-yl}-3-[N-(trifluoroacetyl)-L-valyl]-3-azabicyclo[3.1.0]hexane-2-carboxamide] | 3840 nM | > 100 µM |
